Results from US20240116985A1, “STAPLED PEPTIDES AND METHODS THEREOF” (priority 2020, published 2024).
Like-named read-outs stand apart in the source and are kept apart here.

Target: T1, full-length beta-Catenin (Uniprot ID P35222) (Homo sapiens, UniProt P35222)
T1 construct: 10 nM full-length beta-Catenin (Uniprot ID P35222)
T1 sequence (P35222 1-781): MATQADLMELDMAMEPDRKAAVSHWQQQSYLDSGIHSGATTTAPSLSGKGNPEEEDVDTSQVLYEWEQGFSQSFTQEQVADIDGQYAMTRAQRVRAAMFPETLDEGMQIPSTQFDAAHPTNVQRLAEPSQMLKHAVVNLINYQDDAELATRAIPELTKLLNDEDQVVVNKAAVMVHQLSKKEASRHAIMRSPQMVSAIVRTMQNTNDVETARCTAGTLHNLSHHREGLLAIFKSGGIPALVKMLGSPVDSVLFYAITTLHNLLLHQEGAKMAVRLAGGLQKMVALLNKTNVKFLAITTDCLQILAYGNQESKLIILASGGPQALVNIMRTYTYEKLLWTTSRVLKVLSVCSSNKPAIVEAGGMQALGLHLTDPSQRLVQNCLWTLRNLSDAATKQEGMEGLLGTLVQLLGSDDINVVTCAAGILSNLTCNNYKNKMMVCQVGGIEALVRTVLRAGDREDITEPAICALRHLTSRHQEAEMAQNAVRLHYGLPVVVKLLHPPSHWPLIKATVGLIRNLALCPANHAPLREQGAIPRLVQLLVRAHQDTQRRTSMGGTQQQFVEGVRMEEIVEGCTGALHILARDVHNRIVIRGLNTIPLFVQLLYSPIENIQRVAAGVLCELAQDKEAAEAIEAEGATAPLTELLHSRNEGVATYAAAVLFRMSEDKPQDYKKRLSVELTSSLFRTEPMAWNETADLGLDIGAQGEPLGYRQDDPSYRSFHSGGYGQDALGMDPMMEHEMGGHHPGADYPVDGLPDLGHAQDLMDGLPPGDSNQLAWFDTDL
Assay: Fluorescence polarization IC50 (beta-catenin / 5FAM-TCF4 10-53 competition)
Type: binding
Conditions: fluorescence polarization

[1] = beta-catenin, read-out: FP EC50

SMILES | IC50 (read-out: beta-Catenin FP IC50) | IC50 [1] | IC50 (beta-Catenin FP IC50 (nM))
CC(=O)N1CCC[C@]12CCCCCCC1(CCCCCCCCOC(=O)N3CC[C@@](C(=O)N[C@@H](Cc4ccccc4Cl)C(=O)N[C@@H](Cc4csc5ccccc45)C(=O)N[C@@H](CCO)C(N)=O)(C3)NC(=O)[C@H](CCO)NC(=O)[C@H](Cc3ccccc3)NC(=O)[C@H](C)NC(=O)[C@H](C)NC(=O)[C@H](CN(CC(=O)O)CC(F)(F)F)NC(=O)[C@H](CC(=O)O)NC1=O)NC(=O)[C@H](CC(C)(C)C)NC(=O)[C@H](CC(=O)O)NC2=O (stereo partly drawn) [I-1699, Ac-PL3-Asp-Npg-B5-Asp-TfeGA-Ala-Ala-Phe-Hse-PyrS2-2C1F-BztA-Hse-NH2] | 533 nM |  | 
CC(=O)N1CCC[C@]12CC=CCCCC1(CCCC=CCCCOC(=O)N3CC[C@@](C(=O)N[C@@H](Cc4ccsc4)C(=O)N[C@@H](Cc4csc5ccccc45)C(=O)N[C@@H](CCO)C(N)=O)(C3)NC(=O)[C@H](CC(C)C)NC(=O)[C@H](Cc3ccccc3)NC(=O)[C@H](C)NC(=O)[C@H](C)NC(=O)[C@H](CC(=O)O)NC(=O)[C@H](CC(=O)O)NC1=O)NC(=O)[C@H](CC(N)=O)NC(=O)[C@H](CC(=O)O)NC2=O (stereo partly drawn) [I-1518, Ac-PL3-Asp-Asn-B5-Asp-Asp-Ala-Ala-Phe-Leu-PyrS2-3Thi-BztA-Hse-NH2] | 23 nM |  | 
CCCC[C@@H]1NC(=O)[C@H](CC(=O)O)NC(=O)[C@]2(CC=CCCCC3(CCCC=CCCCOC(=O)N4CC[C@@](C(=O)N[C@@H](Cc5ccccc5Cl)C(=O)N[C@@H](Cc5csc6ccccc56)C(=O)N[C@@H](CC(C)C)C(N)=O)(C4)NC(=O)[C@H](CC(C)C)NC(=O)[C@H](Cc4ccccc4)NC(=O)[C@H](C)NC(=O)[C@H](C)NC(=O)[C@H](CC(=O)O)NC(=O)[C@H](CC(=O)O)NC3=O)NC1=O)CCCN2C(C)=O (stereo partly drawn) [I-1420, Ac-PL3-Asp-nLeu-B5-Asp-Asp-Ala-Ala-Phe-Leu-PyrS2-2C1F-BztA-Leu-NH2] | 124 nM | 124 nM | 
CC(=O)N1CCC[C@]12CC=CCCCC1(CCCC=CCCCOC(=O)N3CC[C@@](C(=O)N[C@@H](Cc4ccsc4)C(=O)N[C@@H](Cc4csc5ccccc45)C(=O)N[C@@H](CC(N)=O)C(=O)N[C@@H](C)C(=O)N[C@@H](C)C(=O)N[C@@H](C)C(=O)N[C@@H](C)C(=O)N[C@@H](C)C(=O)N[C@@H](C)C(=O)N[C@@H](C)C(=O)N[C@@H](C)C(=O)N[C@@H](C)C(N)=O)(C3)NC(=O)[C@H](CC(C)C)NC(=O)[C@H](Cc3ccccc3)NC(=O)[C@H](C)NC(=O)[C@H](C)NC(=O)[C@H](Cc3cccc(C(=O)O)c3)NC(=O)[C@H](CC(=O)O)NC1=O)NC(=O)[C@H](CC(C)(C)C)NC(=O)[C@H](CC(=O)O)NC2=O (some centres unmarked) [I-2270] |  |  | 40 nM
CC(=O)N1CCC[C@]12CC=CCCCC1(CCCC=CCCCCCC[C@@](C)(C(=O)N[C@@H](Cc3ccsc3)C(=O)N[C@@H](Cc3csc4ccccc34)C(=O)N[C@@H](CCC(N)=O)C(N)=O)NC(=O)[C@H](CC(N)=O)NC(=O)[C@H](Cc3ccccc3)NC(=O)[C@H](C)NC(=O)[C@H](C)NC(=O)[C@H](CN(CC(=O)O)C(C)C)NC(=O)[C@H](CC(=O)O)NC1=O)NC(=O)[C@H](CC(C)(C)C)NC(=O)[C@H](CC(=O)O)NC2=O (stereo partly drawn) [I-1453, Ac-PL3-Asp-Npg-B5-Asp-[iPr]GA-Ala-Ala-Phe-Asn-S8-3Thi-BztA-Gln-NH2] | 52 nM | 52 nM | 
CC(=O)N1CCC[C@]12CC=CCCCC1(CCCC=CCCCOC(=O)N3CC[C@@](C(=O)N[C@@H](Cc4ccsc4)C(=O)N[C@@H](Cc4csc5ccccc45)C(=O)N[C@@H](CCC(N)=O)C(N)=O)(C3)NC(=O)[C@H](CC(N)=O)NC(=O)[C@H](Cc3ccccc3)NC(=O)[C@H](C)NC(=O)[C@H](C)NC(=O)[C@H](CC(C)C)NC(=O)[C@H](CC(N)=O)NC1=O)NC(=O)[C@H](CC(C)(C)C)NC(=O)[C@H](CC(=O)O)NC2=O (stereo partly drawn) [I-1570, Ac-PL3-Asp-Npg-B5-Asn-Leu-Ala-Ala-Phe-Asn-PyrS2-3Thi-BztA-Gln-NH2] | 1340 nM |  | 
CC(=O)N1CCC[C@]12CC=CCCCC1(CCCC=CCCCOC(=O)N3CC[C@@](C(=O)N[C@@H](Cc4ccsc4)C(=O)N[C@@H](Cc4csc5ccccc45)C(=O)N[C@@H](CCC(N)=O)C(N)=O)(C3)NC(=O)[C@H](CC(N)=O)NC(=O)[C@H](Cc3ccccc3)NC(=O)[C@H](C)NC(=O)[C@H](C)NC(=O)[C@H](CC(N)=O)NC(=O)[C@H]([C@@H](C)O)NC1=O)NC(=O)[C@H](CC(C)(C)C)NC(=O)[C@H](CC(=O)O)NC2=O (stereo partly drawn) [I-1559, Ac-PL3-Asp-Npg-B5-Thr-Asn-Ala-Ala-Phe-Asn-PyrS2-3Thi-BztA-Gln-NH2] | 9680 nM |  | 
CC(=O)N1CCC[C@]12CC=CCCCC1(CCCC=CCCCOC(=O)N3CC[C@@](C(=O)N[C@@H](Cc4ccccc4Cl)C(=O)N[C@@H](Cc4csc5ccccc45)C(=O)N[C@@H](CCC(N)=O)C(N)=O)(C3)NC(=O)[C@H](CC(N)=O)NC(=O)[C@H](Cc3ccccc3)NC(=O)[C@H](C)NC(=O)[C@H](C)NC(=O)[C@H](CN(CC(=O)O)Cc3c(F)c(F)c(F)c(F)c3F)NC(=O)[C@H](CC(=O)O)NC1=O)NC(=O)[C@H](CC(C)(C)C)NC(=O)[C@H](CC(=O)O)NC2=O (stereo partly drawn) [I-1448, Ac-PL3-Asp-Npg-B5-Asp-[Pfbn]GA-Ala-Ala-Phe-Asn-PyrS2-2C1F-BztA-Gln-NH2] | 20 nM | 20 nM | 

Now from value to molecule, other results behind:

IC50 (read-out: beta-Catenin FP IC50) | IC50 [1] | SMILES | IC50 (beta-Catenin FP IC50 (nM))
1540 nM |  | CC(=O)N1CCC[C@]12CC=CCCCC1(CCCC=CCCCOC(=O)N3CC[C@@](C(=O)N[C@@H](Cc4cccc(C5CC5)c4)C(=O)N[C@@H](Cc4ccccc4)C(=O)N[C@@H](CCC(N)=O)C(N)=O)(C3)NC(=O)[C@H](CC(C)C)NC(=O)[C@H](Cc3ccccc3)NC(=O)[C@H](C)NC(=O)[C@H](C)NC(=O)[C@H](Cc3cccc(C(=O)O)c3)NC(=O)[C@H](CC(=O)O)NC1=O)NC(=O)[C@H](CC(C)(C)C)NC(=O)[C@H](CC(=O)O)NC2=O (stereo partly drawn) [I-2215, Ac-PL3-Asp-Npg-B5-Asp-3COOHF-Ala-Ala-Phe-Leu-PyrS2-[CyPr]-3SF-Phe-Gln-NH2] | 
308 nM |  | CC(=O)N1CCC[C@]12CC=CCCCC1(CCCC=CCOC(=O)N3CC(C(=O)N[C@@H](Cc4ccsc4)C(=O)N[C@@H](Cc4csc5ccccc45)C(=O)N[C@@H](CCC(N)=O)C(N)=O)(C3)NC(=O)[C@H](CC(N)=O)NC(=O)[C@H](Cc3ccccc3)NC(=O)[C@H](C)NC(=O)[C@H](C)NC(=O)[C@H](CC(=O)O)NC(=O)[C@H](CC(=O)O)NC1=O)NC(=O)[C@H](CC(C)(C)C)NC(=O)[C@H](CC(=O)O)NC2=O (stereo partly drawn) [I-1827, Ac-PL3-Asp-Npg-B5-Asp-Asp-Ala-Ala-Phe-Asn-Az-3Thi-BztA-Gln-NH2] | 
402 nM |  | CC(=O)N1CCC[C@]12CC=CCCCC1(CCCC=CCCCOC(=O)N3CC[C@@](C(=O)N[C@@H](Cc4ccsc4)C(=O)N[C@@H](Cc4csc5ccccc45)C(=O)N[C@H](C(N)=O)[C@@H](C)O)(C3)NC(=O)[C@H](CC(N)=O)NC(=O)[C@H](Cc3ccccc3)NC(=O)[C@H](C)NC(=O)[C@H](C)NC(=O)[C@H]([C@@H](C)O)NC(=O)[C@H](CC(N)=O)NC1=O)NC(=O)[C@H](CC(C)(C)C)NC(=O)[C@H](CC(=O)O)NC2=O (stereo partly drawn) [I-1745, Ac-PL3-Asp-Npg-B5-Asn-Thr-Ala-Ala-Phe-Asn-PyrS2-3Thi-BztA-Thr-NH2] | 
441 nM |  | CC(=O)N1CCC[C@]12CC=CCCCC1(CCCC=CCCCOC(=O)N3CC[C@@](C(=O)N[C@@H](Cc4ccccc4)C(=O)N[C@@H](Cc4csc5ccccc45)C(=O)N[C@@H](CCO)C(N)=O)(C3)NC(=O)[C@H](CC(C)C)NC(=O)[C@H](Cc3ccccc3)NC(=O)[C@H](C)NC(=O)[C@H](CCCCNC(C)C)NC(=O)[C@H](CCC(N)=O)NC(=O)[C@H](CC(=O)O)NC1=O)NC(=O)[C@H](CC1CCCCC1)NC(=O)[C@H](CC(N)=O)NC2=O (stereo partly drawn) [I-2165, Ac-PL3-Asn-Cha-B5-Asp-Gln-iPrLys-Ala-Phe-Leu-PyrS2-Phe-BztA-Hse-NH2] | 
1740 nM |  | COC(=O)CC[C@@H]1NC(=O)[C@H](CC(=O)O)NC(=O)C2(CCCC=CCCCOC(=O)N3CC[C@@](C(=O)N[C@@H](Cc4ccsc4)C(=O)N[C@@H](Cc4csc5ccccc45)C(=O)N[C@@H](CCC(N)=O)C(N)=O)(C3)NC(=O)[C@H](CC(C)C)NC(=O)[C@H](Cc3ccccc3)NC(=O)[C@H](C)NC(=O)[C@H](C)NC1=O)CCCC=CC[C@]1(CCCN1C(C)=O)C(=O)N[C@@H](CC(=O)O)C(=O)N[C@@H](CC(C)(C)C)C(=O)N2 (stereo partly drawn) [I-2366, Ac-PL3-Asp-Npg-B5-Asp-[Me]GluE-Ala-Ala-Phe-Leu-PyrS2-3Thi-BztA-Gln-NH2] | 
8160 nM |  | CC(=O)N1CCC[C@H]1C(=O)N[C@]1(C)CCCC=CCCCC2(CCCC=CCCCOC(=O)N3CC[C@@](C(=O)N[C@@H](Cc4ccccc4C(F)(F)F)C(=O)N[C@@H](Cc4csc5ccccc45)C(=O)N[C@@H](CCC(N)=O)C(N)=O)(C3)NC(=O)[C@H](CC(C)C)NC(=O)[C@H](Cc3ccccc3)NC(=O)[C@H](C)NC(=O)[C@H](C)NC(=O)[C@H](Cc3cccc(C(=O)O)c3)NC(=O)[C@H](CC(=O)O)NC2=O)NC(=O)[C@H](CC(C)(C)C)NC(=O)[C@H](CC(=O)O)NC(=O)[C@H](CCC(=O)O)NC1=O (stereo partly drawn) [I-2575, Ac-Pro-R5-Glu-Asp-Npg-B5-Asp-3COOHF-Ala-Ala-Phe-Leu-PyrS2-2F3MeF-BztA-Gln-NH2] | 
